# Assay results as given in ChEMBL document CHEMBL1140333, “Structure-based design, synthesis, and biological evaluation of inhibitors of Mycobacterium tuberculosis type II dehydroquinase” (J Med Chem, 2005).
# Biological target: T1, 3-dehydroquinate dehydratase (Mycobacterium tuberculosis, UniProt P9WPX7)
# T1 sequence (P9WPX7 whole entry): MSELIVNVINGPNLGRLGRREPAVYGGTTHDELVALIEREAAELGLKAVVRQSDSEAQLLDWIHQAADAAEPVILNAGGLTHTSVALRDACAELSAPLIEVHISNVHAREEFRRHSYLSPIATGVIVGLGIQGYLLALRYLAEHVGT
# Experiment: Inhibition of Mycobacterium tuberculosis type II dehydroquinase at 25 degree C pH 8.2
smiles,measurement,value
O=C(O)[C@]1(O)C=C(c2cc(F)cc(F)c2)[C@@H](O)[C@H](O)C1,Ki,2.44 µM
O=C(O)[C@]1(O)C=C(c2ccsc2)[C@@H](O)[C@H](O)C1,Ki,0.59 µM
O=C(O)[C@]1(O)C=C(c2cccc([N+](=O)[O-])c2)[C@@H](O)[C@H](O)C1,Ki,0.054 µM
O=C(O)[C@]1(O)C=C(c2cccc(O)c2)[C@@H](O)[C@H](O)C1,Ki,95 µM
O=C(O)[C@]1(O)C=C(c2cccc(C(F)(F)F)c2)[C@@H](O)[C@H](O)C1,Ki,2.12 µM
O=C(O)c1cccc(C2=C[C@@](O)(C(=O)O)C[C@@H](O)[C@@H]2O)c1,Ki,150 µM
O=C(O)[C@]1(O)C=C(c2ccccc2)[C@@H](O)[C@H](O)C1,Ki,1.5 µM
O=C(O)[C@]1(O)C=C(c2ccc(F)cc2)[C@@H](O)[C@H](O)C1,Ki,1.8 µM
O=C(O)[C@]1(O)C=C(c2ccc(C(F)(F)F)cc2)[C@@H](O)[C@H](O)C1,Ki,17 µM
O=C(O)[C@]1(O)C=C(c2cccc(F)c2)[C@@H](O)[C@H](O)C1,Ki,1.5 µM
O=C(O)[C@]1(O)C/C(=N\O)[C@@H](O)[C@H](O)C1,Ki,20 µM
O=C(O)[C@]1(O)C=C(F)[C@@H](O)[C@H](O)C1,Ki,10 µM
O=C(O)[C@]1(O)C=C(c2ccoc2)[C@@H](O)[C@H](O)C1,Ki,0.83 µM
O=C(O)[C@]1(O)C=C(c2cccnc2)[C@@H](O)[C@H](O)C1,Ki,45 µM
